Source: ChEMBL document CHEMBL1145364, “A novel artemisinin-quinine hybrid with potent antimalarial activity” (Bioorg Med Chem Lett, 2007)

Key:
Assay type in all cases: functional, organism-based
[1] = tested on: Plasmodium falciparum; test: Antimalarial activity against Plasmodium falciparum 3D7 after 48 hrs by pLDH assay; details: 3D7, 48 h
[2] = tested on: Plasmodium falciparum; test: Antimalarial activity against Plasmodium falciparum 3D7 after 72 hrs by pLDH assay; details: 3D7, 72 h
[3] = tested on: Plasmodium falciparum; test: Antimalarial activity against chloroquine-resistant Plasmodium falciparum FcB1 after 48 hrs by pLDH assay; details: FcB1, 48 h
[4] = tested on: Plasmodium falciparum; test: Antimalarial activity against chloroquine-resistant Plasmodium falciparum FcB1 after 72 hrs by pLDH assay; details: FcB1, 72 h

SMILES	IC50 [1]	IC50 [2]	IC50 [3]	IC50 [4]
COc1ccc2nccc([C@@H](O)C3CC4CCN3CC4CC(=O)O[C@@H]3OC4O[C@]5(C)CCC6[C@H](C)CCC([C@H]3C)[C@@]46OO5)c2c1 (some centres not stated)	8.95 nM	10.4 nM	9.59 nM	10.2 nM
C[C@@H]1CC[C@H]2[C@@H](C)C(=O)O[C@@H]3O[C@@]4(C)CC[C@@H]1[C@]32OO4 [ARTEMISININ]	49.4 nM	45.5 nM	50 nM	55 nM
C=C[C@H]1CN2CC[C@H]1C[C@H]2[C@H](O)c1ccnc2ccc(OC)cc12 [QUININE]	149 nM	73.5 nM	96.8 nM	75.3 nM
